Experimental data reported in US8343531B2, “Composition containing peptide as active ingredient” (Meiji Co., Ltd., priority 2006, dated 2013).
Residues, ends and D or L forms follow the SMILES beside them.

Tests used:
Wister rats = assay: Oral glucose tolerance test; format: in vivo; conditions: 0.1 g/kg BW oral with glucose 2.0 g/kg BW
Method: Male Wister rats each weighing about 360 g (6 rats per group) were used. The rats were fasted for 18 hours and then administered with 30% glucose aqueous solution in a dose of 2.0 g/kg body weight (BW). […] After 30, 60, 90, 120 and 180 minutes, blood was collected from a rat tail vein and measured for its blood glucose level with Diasensor (manufactured by ARKRAY, Inc.).

[1] = test system: isolated epitrochlearis muscles; assay: Influence of PI3K inhibitor and GLUT-4 inhibitor on the rate of glucose uptake into isolated muscles; format: cell-based, Wister rats; conditions: 1 mM Ile-Leu alone; average ± SD; control 0.95 ± 0.10
Method: Epitrochlearis muscles were excised from male Wister rats (each weighing 120 g) (8 samples per group) under pentobarbital anesthesia carefully so as not to hurt the epitrochlearis muscles. The epitrochlearis muscles were incubated at 35° C. for 1 hour in KRH buffer containing 0.1% BSA, 8 mM glucose and 32 mM mannitol, in 5% CO2/95% O2. Thereafter, the epitrochlearis muscles were removed and incubated at 30° C. for 30 minutes in KRH buffer containing 0.1% BSA, 40 mM mannitol, and 1 mM Ile-Leu (Kokusan Chemical Co., Ltd.), 1 mM Ile-Leu+10 μM LY294002 (Sigma) or 1 mM Ile-Leu+70 μM cytochalasin B (Sigma) in 5% CO2/95% O2. Then, the epitrochlearis muscles were removed and incubated at 30° C. for accurately 20 minutes in KRH buffer containing 0.1% BSA, 32 mM mannitol and 8 mM 2-deoxyglucose, in 5% CO2/95% O2. Immediately after incubation for accurately 20 minutes, the epitrochlearis muscles were frozen with liquid nitrogen. Thereafter, the frozen epitrochlearis muscles were homogenized in 0.3 M perchloric acid aqueous solution, and after the resulting suspension was neutralized, the amount of 2-deoxyglucose 6-phosphate in the muscles was quantified by an enzymatic method to determine the rate of glucose uptake.

[2] = test system: isolated epitrochlearis muscles; assay: Rate of glucose uptake into isolated muscles; format: cell-based, Wister rats; conditions: 1 mM dipeptide, 30 min at 30° C., then 8 mM 2-deoxyglucose 20 min; average ± SD; control 0.95 ± 0.10
Method: Epitrochlearis muscles were excised from male Wister rats (each weighing 120 g) (16 rats) under pentobarbital anesthesia carefully so as not to hurt the epitrochlearis muscles. The epitrochlearis muscles were incubated at 35° C. for 1 hour in KRH buffer (136 mM NaCl, 4.7 mM KCl, 1.25 mM CaCl2, 1.25 mM MgSO4.7H2O, 20 mM Hepes, 1 mg/mL BSA, pH 7.4; referred to hereinafter as KRH buffer) containing 0.1% bovine serum albumin (BSA), 8 mM glucose and 32 mM mannitol, in 5% CO2/95% O2. Thereafter, the epitrochlearis muscles were removed and incubated (8 samples per group) at 30° C. for 30 minutes in KRH buffer containing 0.1% BSA, 40 mM mannitol, and 1 mM Ile-Leu (Kokusan Chemical Co., Ltd.), 1 mM Ile-Trp (Kokusan Chemical Co., Ltd.), or the milk whey protein hydrolysate containing 1 mM leucine in terms of amino acid, produced in Production Example 1, in 5% CO2/95% O2. Then, the epitrochlearis muscles were removed and incubated at 30° C. for accurately 20 minutes in KRH buffer containing 0.1% BSA, 32 mM mannitol and 8 mM 2-deoxyglucose, in 5% CO2/95% O2. […] Thereafter, the frozen epitrochlearis muscles were homogenized in 0.3 M perchloric acid aqueous solution, and after the resulting suspension was neutralized, the amount of 2-deoxyglucose-6-phosphate in the muscles was quantified by an enzymatic method to determine the rate of glucose uptake.

Rat L6 myotubes = assay: Rate of glucose uptake into muscle cells; format: cell-based; conditions: 1 mM dipeptide, 3 hours, then 8 mM 2-deoxyglucose 10 minutes; average ± SD; control 1.21 ± 0.07
Method: Rat L6 myotubes were cultured in an Eagle medium containing 10% bovine serum (α-MEM) in a Petri dish coated with type 1 collagen in 5% CO2/95% O2. The cells were recovered by trypsin treatment in a usual manner and seeded at a density of 50,000 cells/well on a 48-well plate coated with type 1 collagen, and cultured for 3 days to make the cells confluent. After the medium was removed, 500 μL of an Eagle medium containing 2% bovine serum (α-MEM) was added to each well, and then the cells were cultured for 5 days thereby inducing differentiation. Each well was washed with 500 μL KRH buffer (136 mM NaCl, 4.7 mM KCl, 1.25 mM CaCl2, 1.25 mM MgSO4.7H2O, 20 mM Hepes, 1 mg/mL BSA, pH 7.4) carefully such that the cells were not detached. Then, […] KRH buffer containing 1 mM Ile-Leu, Ile-Trp, Ala-Leu, Val-Leu, Gly-Leu, Asp-Leu, Lys-Ile, Leu-Leu, Ile-Ile, Leu-Ile, Ile-Asn, Leu-Ala, Leu-Glu, Leu-Val or Ile-Val (Kokusan Chemical Co., Ltd.) was added to each well and reacted for 3 hours with the cells. Thereafter, the KRH buffer was removed, and […] buffer containing 8 mM 2-deoxyglucose was added to each well and reacted for accurately 10 minutes with for the cells. The reaction was terminated with […] 0.1 N NaOH, followed by neutralization with an equal volume of 0.1 N HCl, and then the amount of 2-deoxyglucose 6-phosphate in the cells was quantified by an enzymatic method to determine the rate of glucose uptake.

| Molecule | Rate of glucose uptake into muscle cells (Rat L6 myotubes) | further results |
| --- | --- | --- |
| CC[C@H](C)[C@H](N)C(=O)N[C@@H](CC(C)C)C(=O)O [Ile-Leu, Isoleucyl leucine] (H-Ile-Leu-OH) | 1.61 ± 0.05 nmol/min/well | Blood glucose level (change) (Wister rats; 0 minute, fasted rats, average ± SD): 0 ± 0 mg/100 mL; Blood glucose level (change) (Wister rats; 30 minutes, glucose alone 62 ± 4): 44 ± 8 mg/100 mL; Blood glucose level (change) (Wister rats; 60 minutes, glucose alone 61 ± 4): 57 ± 7 mg/100 mL; Blood glucose level (change) (Wister rats; 90 minutes, glucose alone 57 ± 4): 35 ± 4 mg/100 mL; Blood glucose level (change) (Wister rats; 120 minutes, glucose alone 27 ± 6): 19 ± 3 mg/100 mL; Blood glucose level (change) (Wister rats; 180 minutes, glucose alone 5 ± 1): 1 ± 3 mg/100 mL; Rate of glucose uptake into isolated skeletal muscles [1]: 1.88 ± 0.40 μmol/min/g muscle; Rate of glucose uptake into isolated skeletal muscles [2]: 1.88 ± 0.40 μmol/min/g muscle |
| Ala-Leu | 1.91 ± 0.07 nmol/min/well | – |
| Asp-Leu | 1.81 ± 0.50 nmol/min/well | – |
| Gly-Leu | 1.81 ± 0.04 nmol/min/well | – |
| Ile-Asn | 1.92 ± 0.06 nmol/min/well | – |
| Ile-Ile | 1.88 ± 0.05 nmol/min/well | – |
| Ile-Trp | 1.91 ± 0.06 nmol/min/well | Rate of glucose uptake into isolated skeletal muscles [2]: 1.92 ± 0.31 μmol/min/g muscle |
| Ile-Val | 1.80 ± 0.07 nmol/min/well | – |
| Leu-Ala | 2.09 ± 0.08 nmol/min/well | – |
| Leu-Glu | 2.16 ± 0.05 nmol/min/well | – |
| Leu-Ile | 1.73 ± 0.04 nmol/min/well | – |
| Leu-Leu | 1.75 ± 0.05 nmol/min/well | – |
| Leu-Val | 1.74 ± 0.06 nmol/min/well | – |
| Lys-Ile | 2.34 ± 0.06 nmol/min/well | – |
| Val-Leu | 1.76 ± 0.07 nmol/min/well | – |
